This experiment has as its target human PD-L1 / Human PD-1 (Homo sapiens (Human), UniProt Q9NZQ7). The experiment can be described thus: Enzyme-Linked Immunosorbent Assay (ELISA), PD-1/PD-L1 binding. Conditions: plate-coated human PD-L1, biotinylated human PD-1. The method, then:
Biological Example: Enzyme-Linked Immunosorbent Assay—ELISA
96 Well plates were coated with […] of human PD-L1 (obtained from R&D) in PBS overnight at 4° C. The wells were then blocked with 2% BSA in PBS (W/V) with 0.05% TWEEN-20 for 1 hour at 37° C. The plates were washed 3 times with PBS/0.05% TWEEN-20 and the compounds were serial diluted (1:5) in dilution medium and added to the ELISA plates. Human PD-1 and biotin 0.3 μg/mL (ACRO Biosystems) were added and incubated for 1 hour at 37° C. then washed 3 times with PBS/0.05% TWEEN-20. A second block was performed with 2% BSA in PBS (W/V)/0.05% TWEEN-20 for 10 min at 37° C. and was washed 3 times with PBS/0.05% TWEEN-20. Streptavidin-HRP was added for 1 hour at 37° C. then washed 3 times with PBS/0.05% TWEEN-20. TMB substrate was added and reacted for 20 min at 37° C. A stop solution (2 N aqueous H2SO4) was added. The absorbance was read at 450 nm using a micro-plate spectrophotometer.
(ELISA stands for enzyme-linked immunosorbent assay.)

Some results are limits rather than exact numbers.

The IC50 is the concentration that gives 50% inhibition. Low readings indicate greater potency, high ones weaker potency.

Sequence of human PD-L1 / Human PD-1 (Q9NZQ7 19-239): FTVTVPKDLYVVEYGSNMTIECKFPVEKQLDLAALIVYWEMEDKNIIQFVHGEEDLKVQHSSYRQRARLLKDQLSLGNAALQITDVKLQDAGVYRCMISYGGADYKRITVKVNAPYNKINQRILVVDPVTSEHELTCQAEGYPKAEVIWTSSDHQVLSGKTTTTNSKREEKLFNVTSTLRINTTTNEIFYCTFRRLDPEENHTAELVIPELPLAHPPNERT

With `CC1(F)CCN(Cc2cc(Cl)c(O[C@H]3CCc4c(-c5cccc(OCCCN6CCC(F)CC6)c5Cl)cccc43)cc2OCc2cncc(C#N)c2)CC1`, the IC50 lay in the range of 5 to 500 nM.

In the case of `C[C@@H](O)[C@H](NCc1cc(Cl)c(O[C@H]2CCc3c(-c4cccc(OCCCN5CCC(O)CC5)c4Cl)cccc32)cc1OCc1cncc(C#N)c1)C(=O)O`, the IC50 was below 5 nM.

`Cc1c(OCCCN2CC(F)(F)C2)cccc1-c1cccc2c1CC[C@@H]2Oc1cc(OCc2cc(C#N)cc(C#N)c2)c(CNC[C@H]2CCC(=O)N2)cc1Cl` gave an IC50 of 5 to 500 nM.

In the case of `Cc1c(OCCCN2CCC[C@@H](F)C2)cccc1-c1cccc2c1CC[C@@H]2Oc1cc(OCc2cc(C#N)cc(C#N)c2)c(CN[C@H]2CCC(=O)NC2)cc1Cl`, the 50% inhibitory concentration (IC50) lay within 5 to 500 nM.

The molecule `CCOc1cc(O[C@H]2CCc3c(-c4cccc(OCCCN5CCCCC5(C)C)c4C)cccc32)c(Cl)cc1CNC[C@@H]1CCC(=O)N1` registered an IC50 of 5 to 500 nM.

`N#Cc1cncc(COc2cc(O[C@H]3CCc4c(-c5cccc(OCCCN6CC7(CC(F)C7)C6)c5Cl)cccc43)c(Cl)cc2CN[C@H]2CCC[C@@H]2O)c1` gave an IC50 below 5 nM.

Take `Cc1c(OCCCN2CCC[C@@H](O)C2)cccc1-c1cccc2c1CC[C@@H]2Oc1cc(OCc2cncc(C#N)c2)c(CN[C@H](C(=O)O)[C@@H](C)O)cc1Cl`: the IC50 was below 5 nM.

The molecule `C[C@@](CO)(NCc1cc(Cl)c(O[C@@H]2c3cccc(-c4cccc(OCCCN5CC(O)C5)c4Cl)c3C[C@@H]2F)cc1OCc1cc(C#N)cc(C#N)c1)C(=O)O` returned an IC50 below 5 nM.

`Cc1c(OCCCN2CCCCC2)cccc1-c1cccc2c1CC[C@@H]2Oc1cc(OCc2cc(C#N)cc(C#N)c2)c(CNC[C@H]2CCC(=O)N2)cc1Cl` gave an IC50 below 5 nM.

Consider `Cc1c(OCCCN2CC(C)(F)C2)cccc1-c1cccc2c1CC[C@@H]2Oc1cc(OCc2cc(C#N)cc(C#N)c2)c(CN[C@H]2CCC(=O)NC2)cc1Cl`, for which the IC50 was 5 to 500 nM.

`CCOc1cc(O[C@H]2CCc3c(-c4cccc(OCCCN5CCC5(C)C)c4C)cccc32)c(Cl)cc1CN[C@H]1CCC(=O)NC1`: the IC50 fell in the range of 5 to 500 nM.

`Cc1c(OCCCN2CC3(CC(F)C3)C2)cccc1-c1cccc2c1CC[C@@H]2Oc1cc(OCc2cncc(C#N)c2)c(CNCC2CCC(=O)N2)cc1Cl` (some centres unmarked) registered an IC50 of 5 to 500 nM.

Regarding `CCOc1cc(O[C@H]2CCc3c(-c4cccc(OCCCN5C(C)CC5(C)C)c4C)cccc32)c(Cl)cc1CNC[C@@H]1CCC(=O)N1` (some centres unmarked), the IC50 was below 5 nM.

As for `CC1(O)CCN(Cc2cc(Cl)c(O[C@H]3CCc4c(-c5cccc(OCCCN6CCC(F)CC6)c5Cl)cccc43)cc2OCc2cncc(C#N)c2)CC1`, the IC50 was below 5 nM.

In turn, `N#Cc1cncc(COc2cc(O[C@H]3CCc4c(-c5cccc(OCCC(N)=O)c5Cl)cccc43)c(Cl)cc2CNC[C@H]2CCC(=O)N2)c1` yielded an IC50 of 5 to 500 nM.

The molecule `Cc1c(OCCCN2CCC(O)CC2)cccc1-c1cccc2c1CC[C@@H]2Oc1cc(OCc2cncc(C#N)c2)c(CN2CCC(C)(O)CC2)cc1Cl` showed a concentration for half-maximal inhibition (IC50) below 5 nM.

In the case of `Cc1c(OCCCN2CCC(F)CC2)cccc1-c1cccc2c1CC[C@@H]2Oc1cc(OCc2cncc(C#N)c2)c(CNC[C@H]2CCC(=O)N2)cc1Cl`, the IC50 was below 5 nM.

For `CCOc1cc(O[C@H]2CCc3c(-c4cccc(OCCCN5CC[C@@H](O)C5)c4C)cccc32)c(Cl)cc1CNC(CO)CO`, the IC50 is below 5 nM.

`N#Cc1cncc(COc2cc(O[C@H]3CCc4c(-c5cccc(OCCCN6CCC(F)CC6)c5Cl)cccc43)c(Cl)cc2CNC[C@H]2CCC(=O)N2)c1` had a half-maximal inhibitory concentration (IC50) below 5 nM.

`N#Cc1cncc(COc2cc(O[C@H]3CCc4c(-c5cccc(OCCCN6CC7(CC(F)C7)C6)c5Cl)cccc43)c(Cl)cc2CN[C@@H]2CCCC[C@@H]2O)c1` returned an IC50 below 5 nM.

Take `N#Cc1cncc(COc2cc(O[C@H]3CCc4c(-c5cccc(OCCCN6CCC(F)CC6)c5Cl)cccc43)c(Cl)cc2CN[C@H]2CCOC[C@H]2O)c1`: the IC50 was below 5 nM.

Regarding `CC(CO)(CO)NCc1cc(Cl)c(O[C@H]2CCc3c(-c4cccc(OCCCN5CCNC(=O)C5)c4Cl)cccc32)cc1OCc1cncc(C#N)c1`, the IC50 is below 5 nM.

In turn, `Cc1c(OCCCN2CCC(C)(F)CC2)cccc1-c1cccc2c1CC[C@@H]2Oc1cc(OCc2cc(C#N)cc(C#N)c2)c(CN[C@@H]2CCC(=O)NC2)cc1Cl` came in with an IC50 of 5 to 500 nM.

`N#Cc1cncc(COc2cc(O[C@H]3CCc4c(-c5cccc(OCCCN6CCC(F)CC6)c5Cl)cccc43)c(Cl)cc2CN[C@@H]2CCOC[C@@H]2O)c1` had an IC50 below 5 nM.

`COc1cc(O[C@H]2CCc3c(-c4cccc(OCCCN5CCC(C)(F)CC5)c4C)cccc32)c(Cl)cc1CN[C@H]1CCC(=O)NC1` came in with an IC50 of 5 to 500 nM.

Molecule `CC1(F)CCN(CCCOc2cccc(-c3cccc4c3CC[C@@H]4Oc3cc(OCc4cncc(C#N)c4)c(CN4CCC5(C4)NC(=O)NC5=O)cc3Cl)c2Cl)CC1` (some centres unmarked) came in with an IC50 of 5 to 500 nM.

In turn, `N#Cc1cncc(COc2cc(O[C@H]3CCc4c(-c5cccc(OCCCN6CCC(F)CC6)c5Cl)cccc43)c(Cl)cc2CN[C@H]2CCOC[C@@H]2O)c1` yielded an IC50 below 5 nM.

Turning to `N#Cc1cncc(COc2cc(O[C@H]3CCc4c(-c5cccc(OCCCN6CC(O)C6)c5Cl)cccc43)c(Cl)cc2CN2CCC3(C2)NC(=O)NC3=O)c1` (some centres unmarked), the IC50 lay within 5 to 500 nM.

The molecule `CCOc1cc(O[C@H]2CCc3c(-c4cccc(OCCCN5CCC5(C)C)c4C)cccc32)c(Cl)cc1CN(CCC(=O)O)C(C)C` showed an IC50 of 5 to 500 nM.

As to `Cc1c(OCCCN2CCCC[C@H]2C)cccc1-c1cccc2c1CC[C@@H]2Oc1cc(OCc2cc(C#N)cc(C#N)c2)c(CNC[C@H]2CCC(=O)N2)cc1Cl`, the IC50 was below 5 nM.

Consider `N#Cc1cncc(COc2cc(O[C@H]3CCc4c(-c5cccc(OCCCN6CCC(F)CC6)c5Cl)cccc43)c(Cl)cc2CN[C@H]2CC[C@@H]2O)c1`, for which the IC50 was below 5 nM.

Molecule `Cc1c(OCCCN2CCC(O)CC2)cccc1-c1cccc2c1CC[C@@H]2Oc1cc(OCc2cc(C#N)cc(C#N)c2)c(CN[C@H](C(=O)O)[C@@H](C)O)cc1Cl` showed an IC50 below 5 nM.

In turn, `COc1cc(O[C@H]2CCc3c(-c4cccc(OCCCN5CCC(F)CC5)c4C)cccc32)c(Cl)cc1CN[C@H]1CCC(=O)NC1` displayed an IC50 of 5 to 500 nM.

The molecule `N#Cc1cncc(COc2cc(O[C@H]3CCc4c(-c5cccc(OCCCN6CC(F)(F)C6)c5Cl)cccc43)c(Cl)cc2CNC[C@@H]2CCC(=O)N2)c1` displayed a 50% inhibitory concentration (IC50) of 5 to 500 nM.

Regarding `Cc1c(OCCCN2CCC(O)CC2)cccc1-c1cccc2c1CC[C@@H]2Oc1cc(OCc2cc(C#N)cc(C#N)c2)c(CN[C@@H](CO)C(=O)O)cc1Cl`, the IC50 is below 5 nM.

In turn, `CCOc1cc(O[C@H]2CCc3c(-c4cccc(OCCCN5[C@H](C)CC[C@H]5C)c4C)cccc32)c(Cl)cc1CN1CCC(C(=O)O)CC1` displayed an IC50 of 5 to 500 nM.

In the case of `COC(=O)[C@@H](NCc1cc(Cl)c(O[C@H]2CCc3c(-c4cccc(OCCCN5CCC(O)CC5)c4C)cccc32)cc1OCc1cncc(C#N)c1)[C@@H](C)O`, the IC50 lay in the range of 5 to 500 nM.

As for `C[C@@H](O)[C@H](NCc1cc(Cl)c(O[C@H]2CCc3c(-c4cccc(OCCCN5CC(O)C5)c4Cl)cccc32)cc1OCc1cncc(C#N)c1)C(=O)NS(C)(=O)=O`, the IC50 was below 5 nM.

As for `CCOc1cc(O[C@H]2CCc3c(-c4cccc(OCCCN5CCC5(C)C)c4C)cccc32)c(Cl)cc1CNCC(C)(C)CO`, the concentration for half-maximal inhibition (IC50) lay in the range of 5 to 500 nM.

`Cc1c(OCCCNC[C@@H](O)CO)cccc1-c1cccc2c1CC[C@@H]2Oc1cc(OCc2cncc(C#N)c2)c(CN[C@H](C(=O)O)[C@@H](C)O)cc1Cl` showed an IC50 below 5 nM.

As to `CCOc1cc(O[C@@H]2c3cccc(-c4cccc(OCCCN5CCC(F)CC5)c4Cl)c3C[C@@H]2F)c(Cl)cc1CN[C@@H]1CCCC[C@@H]1O`, the IC50 fell in the range of 5 to 500 nM.

As for `N#Cc1cncc(COc2cc(O[C@H]3CCc4c(-c5cccc(OCCCN6CCCCC6)c5Cl)cccc43)c(Cl)cc2CNC[C@@H]2CCC(=O)N2)c1`, the IC50 was below 5 nM.

In turn, `CCOc1cc(O[C@H]2CCc3c(-c4cccc(OCCCN5[C@H](C)CC[C@H]5C)c4C)cccc32)c(Cl)cc1CN1CCC(C(=O)OC)CC1` registered an IC50 of 5 to 500 nM.

Molecule `N#Cc1cncc(COc2cc(O[C@H]3CCc4c(-c5cccc(OCCCN6CCCCC6)c5Cl)cccc43)c(Cl)cc2CNC[C@H]2CCC(=O)N2)c1` showed an IC50 below 5 nM.

As to `Cc1c(OCCCN2CCC(O)CC2)cccc1-c1cccc2c1CCC2Oc1cc(OCc2cncc(C#N)c2)c(CN[C@H](C(=O)O)[C@@H](C)O)cc1Cl` (some centres unmarked), the IC50 is below 5 nM.

`CCOc1cc(O[C@H]2CCc3c(-c4cccc(OCCCN5CCC(F)CC5)c4Cl)cccc32)c(Cl)cc1CNCC1CCC(=O)N1` (some centres unmarked) had an IC50 of 5 to 500 nM.

Molecule `Cc1c(OCCCN2CCC(F)CC2)cccc1-c1cccc2c1CC[C@@H]2Oc1cc(OCc2cc(C#N)cc(C#N)c2)c(CN2CCC3(C2)NC(=O)NC3=O)cc1Cl` (some centres unmarked) displayed an IC50 of 5 to 500 nM.

For the molecule `CC(CO)(NCc1cc(Cl)c(O[C@H]2CCc3c(-c4cccc(OCCCN5CC(O)C5)c4Cl)cccc32)cc1OCc1cncc(Cl)c1)C(=O)O` (some centres unmarked), the IC50 is below 5 nM.

In turn, `Cc1c(OCCCN2CCC(C)CC2)cccc1-c1cccc2c1CC[C@@H]2Oc1cc(OCc2cc(C#N)cc(C#N)c2)c(CNC[C@H]2CCC(=O)N2)cc1Cl` came in with a concentration for half-maximal inhibition (IC50) below 5 nM.

The molecule `CCOc1cc(O[C@H]2CCc3c(-c4cccc(OCCCN5CCC5(C)C)c4C)cccc32)c(Cl)cc1CN(CC)CCC(=O)OC` gave an IC50 of 5 to 500 nM.

The molecule `Cc1c(OCCCN2CC3(CC(O)C3)C2)cccc1-c1cccc2c1CC[C@@H]2Oc1cc(OCc2cc(C#N)cc(C#N)c2)c(CNC[C@H]2CCC(=O)N2)cc1Cl` had an IC50 below 5 nM.

`N#Cc1cncc(COc2cc(O[C@H]3CCc4c(-c5cccc(OCCCN6CCC(F)CC6)c5Cl)cccc43)c(Cl)cc2CN[C@@H]2CCC[C@@H]2O)c1`: the IC50 was below 5 nM.

In turn, `CCOc1cc(O[C@H]2CCc3c(-c4cccc(OCCCN5CC[C@@H](O)C5)c4C)cccc32)c(Cl)cc1CNC(C)(CO)C(=O)O` (some centres unmarked) yielded an IC50 below 5 nM.

Values taken from patent publication US10919852B2, “Immunomodulator compounds” (CHEMOCENTRYX, INC., priority 2017, dated 2021).
